The results in this text go back to US20080045514A1 (Cytovia, Inc., priority 2006, published 2008).

Common to all, as to format: cell-based
The subject of assay [1] is human lymphoma cell line Raji. In words: Caspase cascade activation (EC50), Raji. The following applies: Homo sapiens, RAJI cells, read-out: caspase potency (EC50) RAJI. How it is done: (§1) Human breast cancer cell lines T-47D, human hepatocellular carcinoma cell line SNU398, human colon carcinoma cell line HCT116, human cancer cell line H1299, human Burkitt's lymphoma cell line Namalwa, human lymphoma cell line Raji, and human B cell lymphoblastoid cell line Ramos were grown according to media component mixtures designated by American Type Culture Collection+10% FCS (Invitrogen Corporation), in a 5% CO2-95% humidity incubator at 37° C. T-47D and H1299 cells were maintained at a cell density between 50 and 80% confluency at a cell density of 0.1 to 0.6×10^6 cells/mL. Cells were harvested at 600×g and resuspended at 0.65×10^6 cells/mL into appropriate media+10% FCS. An aliquot of 22.5 μL of cells was added to a well of a 384-well microtiter plate containing 2.5 μL of a 10% DMSO in RPMI-1640 media solution containing 0.16 to 100 μM of 3-(2-chlorophenyl)-6-(3,4-methylenedioxyphenyl)-7H-[1,2,4]triazolo[3,4-b][1,3,4]thiadiazine or other test compound (0.016 to 10 μM final). An aliquot of 22.5 μL of cells was added to a well of a 384-well microtiter plate containing 2.5 μL of a 10% DMSO in RPMI-1640 media solution without test compound as the control sample. The samples were mixed by agitation and then incubated at 37° C. for 48 h in a 5% CO2-95% humidity incubator. After incubation, the samples were removed from the incubator and 25 μL of a solution containing 14 μM of N—(Ac-DEVD)-N′-ethoxycarbonyl-R110 (SEQ ID No.:1) fluorogenic substrate (Cytovia, Inc.; WO99/18856), 20% sucrose (Sigma), 20 mM DTT (Sigma), 200 mM NaCl (Sigma), 40 mM Na PIPES buffer pH 7.2 (Sigma), and 500 μg/mL lysolecithin (Calbiochem) was added. The samples were mixed by agitation and incubated at room temperature. Using a fluorescent plate reader (Model SPECTRAfluor Plus, Tecan), an initial reading (T=0) was made approximately 1-2 min after addition of the substrate solution, employing excitation at 485 nm and emission at 530 nm, to determine the background fluorescence of the control sample. After the 3 h incubation, the samples were read for fluorescence as above (T=3 h). Calculation: The Relative Fluorescence Unit values (RFU) were used to calculate the sample readings as follows: RFU(T=3H)−Control RFU(T=0)=Net RFU(T=3h) The activity of caspase cascade activation was determined by the ratio of the net RFU value for 3-(2-chlorophenyl)-6-(3,4-methylenedioxyphenyl)-7H-[1,2,4]triazolo[3,4-b][1,3,4]thiadiazine (Example P) or other test compound to that of control samples. The EC50 (nM) was determined by a sigmoidal dose-response calculation (Prism 3.0, GraphPad Software Inc.).

For assay [2], the system named is human breast cancer cell line T-47D. In words: Caspase cascade activation (EC50), T-47D. The following applies: Homo sapiens; T47D cells; caspase cascade activation; read-out: caspase potency (EC50) T47D. In short, it runs like this:
(§2)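 Cells at 0.65×10^6 cells/mL exposed to compound at 0.016 to 10 μM final (1% DMSO) for 48 h at 37° C, 5% CO2. Caspase activity then read with 14 μM Ac-DEVD-R110 fluorogenic substrate in lysolecithin/DTT/PIPES pH 7.2 buffer at ex 485/em 530 nm after 3 h at room temperature. EC50 fitted sigmoidally from net RFU ratio to control.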

For assay [3], the system named is human Burkitt's lymphoma cell line Namalwa. The assay is described as follows: Caspase cascade activation (EC50), Namalwa. The following applies: Homo sapiens, Burkitts lymphoma cell; Namalwa cells; caspase cascade activation; read-out: caspase potency (EC50) Namalwa. The method, boiled down: as §2
Assay [4] relates to human hepatocellular carcinoma cell line SNU398. In words: Caspase cascade activation (EC50), SNU398. The following applies: Homo sapiens, SNU-398; SNU398 cells; caspase cascade activation; read-out: caspase potency (EC50) SNU398. The method, boiled down: as §2
In assay [5] the test system is human B cell lymphoblastoid cell line Ramos. In words: Caspase cascade activation (EC50), Ramos. Conditions: Homo sapiens, RAMOS cells, read-out: caspase potency (EC50) RAMOS. How it is done:
as §1

Assay [6] relates to human colon carcinoma cell line HCT116. In words: Caspase cascade activation (EC50), HCT116. The following applies: Homo sapiens, HCT-116; HCT116 cells; caspase cascade activation; read-out: caspase potency (EC50) HCT116. The method, boiled down: as §2

Molecules are shown by their SMILES. Structures can show the parent of a compound that is named as a salt.

One may read the EC50 as the midpoint of the concentration-response curve. On to `Fc1ccccc1-c1nnc2n1N=C(c1ccc3c(c1)OCO3)CS2` [Example Q1, 3-(2-Fluorophenyl)-6-(3,4-methylenedioxyphenyl)-7H-[1,2,4]triazolo[3,4-b][1,3,4]thiadiazine], for which the EC50 stood at 0.484 µM in assay [1]; 0.277 µM in assay [2]; 0.25 µM in assay [3]; 0.257 µM in assay [4]; 0.264 µM in assay [5]; 0.551 µM in assay [6].
Take `COc1ccc(C2=Nn3c(nnc3-c3cccc(OC(C)C)c3)SC2)cc1` [Example K2, 3-(3-Isopropyloxyphenyl)-6-(4-methoxyphenyl)-7H-[1,2,4]triazolo[3,4-b][1,3,4]thiadiazine]: the EC50 in assay [1] was 5.47 µM; in assay [2], 5.47 µM; in assay [3], 5.53 µM; in assay [4], 5.56 µM; in assay [5], 5.84 µM; in assay [6], over 10 µM.
Take `COc1cc(-c2nnc3n2N=C(c2ccc(F)cc2)CS3)cc(OC)c1OC` [Example V1, 3-(3,4,5-Trimethoxyphenyl)-6-(4-fluorophenyl)-7H-[1,2,4]triazolo[3,4-b][1,3,4]thiadiazine]: the 50% effective concentration (EC50) in assay [1] is 0.622 µM; in assay [2], 1.32 µM; in assay [3], 0.321 µM; in assay [4], 1.04 µM; in assay [5], 0.463 µM; in assay [6], over 10 µM.
`Cc1ccc(-c2nnc3n2N=C(c2ccc4c(c2)OCO4)CS3)cc1` [C, 3-(4-Methylphenyl)-6-(3,4-methylenedioxyphenyl)-7H-[1,2,4]triazolo[3,4-b][1,3,4]thiadiazine]: the EC50 in assay [1] was 0.568 µM; in assay [2] it was 0.683 µM; in assay [3], 0.58 µM; in assay [4], 0.599 µM; in assay [5], 0.711 µM; in assay [6] it was over 10 µM.
As to `CCOc1ccc(C2=Nn3c(nnc3-c3cccc(C)c3)SC2)cc1` [Example O2, 3-(3-Methylphenyl)-6-(4-ethoxyphenyl)-7H-[1,2,4]triazolo[3,4-b][1,3,4]thiadiazine], the EC50 in assay [1] amounted to 0.641 µM; in assay [2], 1.42 µM; in assay [3], 0.635 µM; in assay [4], 0.433 µM; in assay [5], 0.597 µM; in assay [6], 0.665 µM.
Take `COc1cc(-c2nnc3n2N=C(c2ccc(Br)cc2)CS3)cc(OC)c1OC` [Example U1, 3-(3,4,5-Trimethoxyphenyl)-6-(4-bromophenyl)-7H-[1,2,4]triazolo[3,4-b][1,3,4]thiadiazine]: the EC50 turned out to be 0.065 µM in assay [1]; 0.145 µM in assay [2]; 0.04 µM in assay [3]; 0.042 µM in assay [4]; 0.039 µM in assay [5]; 0.065 µM in assay [6].
For the molecule `CCN(CC)c1ccc(C2=Nn3c(nnc3-c3ccc(OC)c(OC)c3)SC2)cc1` [Example 22, 6-(4-Diethylaminophenyl)-3-(3,4-dimethoxyphenyl)-7H-[1,2,4]triazolo[3,4-b][1,3,4]thiadiazine], the concentration for a half-maximal effect (EC50) in assay [1] came out at 0.27 µM; in assay [2], 0.534 µM; in assay [3], 0.214 µM; in assay [4] it was 0.122 µM; in assay [5] it was 0.258 µM; in assay [6] it was 0.188 µM.
As for `CCc1nnc2n1N=C(c1ccc(OC)cc1)CS2` [Example J2, 3-Ethyl-6-(4-methoxyphenyl)-7H-[1,2,4]triazolo[3,4-b][1,3,4]thiadiazine], the 50% effective concentration (EC50) was 5.56 µM in assay [1]; 5.63 µM in assay [2]; over 10 µM in assay [3]; 5.08 µM in assay [4]; 5.42 µM in assay [5]; over 10 µM in assay [6].
Consider `COc1ccc(C2=Nn3c(nnc3-c3ccc(F)cc3)SC2)cc1` [Example S2], for which the EC50 was determined as 0.569 µM in assay [1]; 1.66 µM in assay [2]; 0.546 µM in assay [3]; 0.271 µM in assay [4]; 0.339 µM in assay [5]; 0.7 µM in assay [6].
For `COc1cc(-c2nnc3n2N=C(c2cccc(Br)c2)CS3)cc(OC)c1OC` [Example X1, 3-(3,4,5-Trimethoxyphenyl)-6-(3-bromophenyl)-7H-[1,2,4]triazolo[3,4-b][1,3,4]thiadiazine], the EC50 in assay [1] is 3.41 µM; in assay [2], 2.64 µM; in assay [3] it was 2.51 µM; in assay [4], 2.65 µM; in assay [5], 2.51 µM; in assay [6], 2.48 µM.
For the molecule `CCOc1ccc(C2=Nn3c(nnc3-c3ccc(F)cc3)SC2)cc1` [Example P2, 3-(4-Fluorophenyl)-6-(4-ethoxyphenyl)-7H-[1,2,4]triazolo[3,4-b][1,3,4]thiadiazine], the EC50 in assay [1] stood at 0.901 µM; in assay [2], 2.16 µM; in assay [3], 0.88 µM; in assay [4], 0.473 µM; in assay [5], 0.66 µM; in assay [6], 1.47 µM.
As to `COc1ccc(-c2nnc3n2N=C(c2ccc([N+](=O)[O-])cc2)CS3)cc1OC` [Example 28, 3-(3,4-Dimethoxyphenyl)-6-(4-nitrophenyl)-7H-[1,2,4]triazolo[3,4-b][1,3,4]thiadiazine], the 50% effective concentration (EC50) in assay [1], in assay [2], in assay [3], in assay [4], in assay [5] and in assay [6] was over 10 µM each time.
Consider `c1cc2c(cc1C1=Nn3c(nnc3C3CCCCC3)SC1)OCO2` [Example M2, 3-Cyclohexyl-6-(3,4-methylenedioxyphenyl)-7H-[1,2,4]triazolo[3,4-b][1,3,4]thiadiazine], for which the concentration giving a half-maximal response (EC50) was 5.19 µM in assay [1]; 4.33 µM in assay [2]; 5.24 µM in assay [3]; 4.77 µM in assay [4]; 5.15 µM in assay [5]; over 10 µM in assay [6].
For `COc1cc(-c2nnc3n2N=C(c2ccc(Cl)cc2)CS3)cc(OC)c1OC` [Example W1, 3-(3,4,5-Trimethoxyphenyl)-6-(4-chlorophenyl)-7H-[1,2,4]triazolo[3,4-b][1,3,4]thiadiazine], the concentration giving a half-maximal response (EC50) in assay [1] was found to be 0.072 µM; in assay [2] it was 0.276 µM; in assay [3], 0.153 µM; in assay [4] it was 0.111 µM; in assay [5], 0.078 µM; in assay [6], 0.13 µM.
As to `COc1cc(-c2nnc3n2N=C(c2ccc4ccccc4c2)CS3)cc(OC)c1OC` [Example Y1, 3-(3,4,5-Trimethoxyphenyl)-6-(2-naphthyl)-7H-[1,2,4]triazolo[3,4-b][1,3,4]thiadiazine], the EC50 was 0.127 µM in assay [1]; 0.556 µM in assay [2]; 0.139 µM in assay [3]; 0.081 µM in assay [4]; 0.099 µM in assay [5]; 0.119 µM in assay [6].
Consider `Oc1ccc(C2=Nn3c(nnc3-c3ccc(Cl)cc3)SC2)cc1` [Example 6, 3-(4-Chlorophenyl)-6-(4-hydroxyphenyl)-7H-[1,2,4]triazolo[3,4-b][1,3,4]thiadiazine hydrobromide], for which the concentration giving a half-maximal response (EC50) in assay [1] is over 10 µM; in assay [2], 0.855 µM; in assay [3], over 10 µM; in assay [4], 5.43 µM; in assay [5], 7.65 µM; in assay [6], over 10 µM.
